Tested on: tau protein
Test: Tau protein in vitro degradation assay (Western blot, Tau-13 antibody)
Format: cell-based, human
Conditions: SK-N-SH cells; 72 hours of incubation; tested at 300 nM, 100 nM, 33 nM and 11 nM; Western blot, Tau-13 antibody
Summary of the method: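 Tau degradation read by Tau-13 Western blot (detects all human tau forms) of SDS-PAGE-resolved lysates from SK-N-SH cells. Cells were plated at least 18 h before 72 h exposure to PROTACs at either 1000/300/100 nM or 300/100/33/11 nM.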

| Structure (SMILES) | Degradation activity* (highest amount of degradation observed at any dosage; tau protein remaining) |
| --- | --- |
| O=C1CCC(N2C(=O)c3ccc(OCCCCCN4CCN(CCO[C@H]5C[C@H](Oc6ccc(-c7ccc8c(c7)[nH]c7ccncc78)cn6)C5)CC4)cc3C2=O)C(=O)N1 (stereo partly drawn) [Compound 59, 5-((5-(4-(2-((1r,3r)-3-((5-(5H-pyrido[4,3-b]indol-7-yl)pyridin-2-yl)oxy)cyclobutoxy)ethyl)piperazin-1-yl)pentyl)oxy)-2-(2,6-dioxopiperidin-3-yl)isoindoline-1,3-dione] | C (>80% tau protein remaining after 72 hours of incubation with the test compound) |
| O=C1CCC(N2C(=O)c3ccc(N4CCN(CCCO[C@H]5C[C@H](Oc6ccc(-c7ccc8c(c7)[nH]c7ccncc78)cn6)C5)CC4)cc3C2=O)C(=O)N1 (stereo partly drawn) [Compound 60, 5-(4-(3-((1r,3r)-3-((5-(5H-pyrido[4,3-b]indol-7-yl)pyridin-2-yl)oxy)cyclobutoxy)propyl)piperazin-1-yl)-2-(2,6-dioxopiperidin-3-yl)isoindoline-1,3-dione] | C (>80% tau protein remaining after 72 hours of incubation with the test compound) |
| O=C1CCC(N2C(=O)c3ccc(OCCCCCN4CCN(CCCc5ccc(-c6ccc7c8cnccc8n(CC(F)(F)F)c7c6)cn5)CC4)cc3C2=O)C(=O)N1 (stereo not drawn) [Compound 61, 2-(2,6-dioxopiperidin-3-yl)-5-((5-(4-(3-(5-(5-(2,2,2-trifluoroethyl)-5H-pyrido[4,3-b]indol-7-yl)pyridin-2-yl)propyl)piperazin-1-yl)pentyl)oxy)isoindoline-1,3-dione] | C (>80% tau protein remaining after 72 hours of incubation with the test compound) |
| Cn1c2ccncc2c2ccc(-c3ccc(CCCN4CCN(CCCCCOc5ccc6c(c5)CN(C5CCC(=O)NC5=O)C6=O)CC4)nc3)cc21 (stereo not drawn) [Compound 62, 3-(5-((5-(4-(3-(5-(5-methyl-5H-pyrido[4,3-b]indol-7-yl)pyridin-2-yl)propyl)piperazin-1-yl)pentyl)oxy)-1-oxoisoindolin-2-yl)piperidine-2,6-dione] | C (>80% tau protein remaining after 72 hours of incubation with the test compound) |
| Cn1c2ccncc2c2ccc(-c3cnc(CCCN4CCN(CCCCCOc5ccc6c(c5)C(=O)N(C5CCC(=O)NC5=O)C6=O)CC4)c(C(F)(F)F)c3)cc21 (stereo not drawn) [Compound 63, 2-(2,6-dioxopiperidin-3-yl)-5-((5-(4-(3-(5-(5-methyl-5H-pyrido[4,3-b]indol-7-yl)-3-(trifluoromethyl)pyridin-2-yl)propyl)piperazin-1-yl)pentyl)oxy)isoindoline-1,3-dione] | C (>80% tau protein remaining after 72 hours of incubation with the test compound) |
| O=C1CCC(N2C(=O)c3ccc(N4CCN(CCCc5ccc(O[C@H]6C[C@H](Oc7ccc(-c8ccc9c(c8)[nH]c8ccncc89)cn7)C6)cn5)CC4)cc3C2=O)C(=O)N1 (stereo partly drawn) [Compound 64, 5-(4-(3-(5-((1r,3r)-3-((5-(5H-pyrido[4,3-b]indol-7-yl)pyridin-2-yl)oxy)cyclobutoxy)pyridin-2-yl)propyl)piperazin-1-yl)-2-(2,6-dioxopiperidin-3-yl)isoindoline-1,3-dione] | C (>80% tau protein remaining after 72 hours of incubation with the test compound) |
| O=C1CCC(N2C(=O)c3ccc(OCCCCCN4CCC(O[C@H]5C[C@H](Oc6ccc(-c7ccc8c(c7)[nH]c7ccncc78)cn6)C5)CC4)cc3C2=O)C(=O)N1 (stereo partly drawn) [Compound 65, 5-((5-(4-((1r,3r)-3-((5-(5H-pyrido[4,3-b]indol-7-yl)pyridin-2-yl)oxy)cyclobutoxy)piperidin-1-yl)pentyl)oxy)-2-(2,6-dioxopiperidin-3-yl)isoindoline-1,3-dione] | C (>80% tau protein remaining after 72 hours of incubation with the test compound) |
| O=C1CCC(N2C(=O)c3ccc(N4CCN(CCN5CCC(O[C@H]6C[C@H](Oc7ccc(-c8ccc9c(c8)[nH]c8ccncc89)cn7)C6)CC5)CC4)cc3C2=O)C(=O)N1 (stereo partly drawn) [Compound 66, 5-(4-(2-(4-((1r,3r)-3-((5-(5H-pyrido[4,3-b]indol-7-yl)pyridin-2-yl)oxy)cyclobutoxy)piperidin-1-yl)ethyl)piperazin-1-yl)-2-(2,6-dioxopiperidin-3-yl)isoindoline-1,3-dione] | C (>80% tau protein remaining after 72 hours of incubation with the test compound) |
| Cn1c2ccncc2c2ccc(-c3cnc(OCCOCCOCCOCCOCCOc4ccc5c(c4)C(=O)N(C4CCC(=O)NC4=O)C5=O)c(C(F)(F)F)c3)cc21 (stereo not drawn) [Compound 67, 2-(2,6-dioxopiperidin-3-yl)-5-((14-((5-(5-methyl-5H-pyrido[4,3-b]indol-7-yl)-3-(trifluoromethyl)pyridin-2-yl)oxy)-3,6,9,12-tetraoxatetradecyl)oxy)isoindoline-1,3-dione] | A (≤50% tau protein remaining after 72 hours of incubation with the test compound) |
| Cn1c2ccncc2c2ccc(-c3ccc(O[C@H]4C[C@H](OCCCCCN5CCN(c6ccc7c(c6)C(=O)N(C6CCC(=O)NC6=O)C7=O)CC5)C4)nc3)cc21 (stereo partly drawn) [Compound 68, 2-(2,6-dioxopiperidin-3-yl)-5-(4-(5-((1r,3r)-3-((5-(5-methyl-5H-pyrido[4,3-b]indol-7-yl)pyridin-2-yl)oxy)cyclobutoxy)pentyl)piperazin-1-yl)isoindoline-1,3-dione] | C (>80% tau protein remaining after 72 hours of incubation with the test compound) |
| Cn1c2ccncc2c2ccc(-c3cnc(OCCOCCOCCOCCOCCOc4ccc5c(c4)C(=O)N(C4CCC(=O)NC4=O)C5=O)cc3C(F)(F)F)cc21 (stereo not drawn) [Compound 69, 2-(2,6-dioxopiperidin-3-yl)-5-((14-((5-(5-methyl-5H-pyrido[4,3-b]indol-7-yl)-4-(trifluoromethyl)pyridin-2-yl)oxy)-3,6,9,12-tetraoxatetradecyl)oxy)isoindoline-1,3-dione] | A (≤50% tau protein remaining after 72 hours of incubation with the test compound) |
| Cn1c2ccncc2c2ccc(-c3ccc(O[C@H]4C[C@H](OCCOCCOCCOCCOc5ccc6c(c5)C(=O)N(C5CCC(=O)NC5=O)C6=O)C4)nc3)cc21 (stereo partly drawn) [Compound 70, 2-(2,6-dioxopiperidin-3-yl)-5-(2-(2-(2-(2-((1r,3r)-3-((5-(5-methyl-5H-pyrido[4,3-b]indol-7-yl)pyridin-2-yl)oxy)cyclobutoxy)ethoxy)ethoxy)ethoxy)ethoxy)isoindoline-1,3-dione] | A (≤50% tau protein remaining after 72 hours of incubation with the test compound) |
| Cn1c2ccncc2c2ccc(-c3ccc(C#CCOCCOCCOCCOCCOc4ccc5c(c4)C(=O)N(C4CCC(=O)NC4=O)C5=O)nc3)cc21 (stereo not drawn) [Compound 71, 2-(2,6-dioxopiperidin-3-yl)-5-((15-(5-(5-methyl-5H-pyrido[4,3-b]indol-7-yl)pyridin-2-yl)-3,6,9,12-tetraoxapentadec-14-yn-1-yl)oxy)isoindoline-1,3-dione] | A (≤50% tau protein remaining after 72 hours of incubation with the test compound) |
| O=C1CCC(N2C(=O)c3c(F)c(F)c(OCCOCCOCCOCCOCCOc4ccc(-c5ccc6c(c5)[nH]c5ccncc56)cn4)c(F)c3C2=O)C(=O)N1 (stereo not drawn) [Compound 72, 5-((14-((5-(5H-pyrido[4,3-b]indol-7-yl)pyridin-2-yl)oxy)-3,6,9,12-tetraoxatetradecyl)oxy)-2-(2,6-dioxopiperidin-3-yl)-4,6,7-trifluoroisoindoline-1,3-dione] | C (>80% tau protein remaining after 72 hours of incubation with the test compound) |
| O=C1CCC(N2C(=O)c3ccc(OCC#Cc4ccc(O[C@H]5C[C@H](Oc6ccc(-c7ccc8c(c7)[nH]c7ccncc78)cn6)C5)cn4)cc3C2=O)C(=O)N1 (stereo partly drawn) [Compound 73, 5-((3-(5-((1r,3r)-3-((5-(5H-pyrido[4,3-b]indol-7-yl)pyridin-2-yl)oxy)cyclobutoxy)pyridin-2-yl)prop-2-yn-1-yl)oxy)-2-(2,6-dioxopiperidin-3-yl)isoindoline-1,3-dione] | A (≤50% tau protein remaining after 72 hours of incubation with the test compound) |
| Cn1c2ccncc2c2ccc(-c3ccc(CCCOCCOCCOCCOCCOc4ccc5c(c4)C(=O)N(C4CCC(=O)NC4=O)C5=O)nc3)cc21 (stereo not drawn) [Compound 74, 2-(2,6-dioxopiperidin-3-yl)-5-((15-(5-(5-methyl-5H-pyrido[4,3-b]indol-7-yl)pyridin-2-yl)-3,6,9,12-tetraoxapentadecyl)oxy)isoindoline-1,3-dione] | A (≤50% tau protein remaining after 72 hours of incubation with the test compound) |
| Cn1c2ccncc2c2ccc(-c3ccc(OCCCCCOCCCCCC4CCN(c5ccc6c(c5)C(=O)N(C5CCC(=O)NC5=O)C6=O)CC4)nc3)cc21 (stereo not drawn) [Compound 75, 2-(2,6-dioxopiperidin-3-yl)-5-(4-(5-((5-((5-(5-methyl-5H-pyrido[4,3-b]indol-7-yl)pyridin-2-yl)oxy)pentyl)oxy)pentyl)piperidin-1-yl)isoindoline-1,3-dione] | C (>80% tau protein remaining after 72 hours of incubation with the test compound) |
| Cn1c2ccncc2c2ccc(-c3ccc(C#CCN4CCN(CCCOC5CN(c6ccc7c(c6)C(=O)N(C6CCC(=O)NC6=O)C7=O)C5)CC4)nc3)cc21 (stereo not drawn) [Compound 76, 2-(2,6-dioxopiperidin-3-yl)-5-(3-(3-(4-(3-(5-(5-methyl-5H-pyrido[4,3-b]indol-7-yl)pyridin-2-yl)prop-2-yn-1-yl)piperazin-1-yl)propoxy)azetidin-1-yl)isoindoline-1,3-dione] | C (>80% tau protein remaining after 72 hours of incubation with the test compound) |
